Experiments:
[1] = tested on: extended human kinome (kinase-like proteins); experiment: Whole cell quantitative proteomics: extended kinome hits; conditions: Accession Q16875-4; experiment wp117
Procedure: (§1) Whole cell multiplexed quantitative proteomics was employed to measure changes in abundance of the proteome in response to treatment with each of the kinase degrader molecules relative to DMSO (Table 1, Appendix I).
(§2) Cells were treated with DMSO (biological triplicate) or degrader at indicated dose and time and cells were harvested by centrifugation. […] Precipitated protein was resuspended in 4 M Urea, 50 mM HEPES pH 7.4, followed by dilution to 1 M urea with the addition of 200 mM EPPS, pH 8. Proteins were first digested with LysC (1:50: enzyme:protein) for 12 hours at room temperature. The LysC digestion was diluted to 0.5 M Urea with 200 mM EPPS pH 8 followed by digestion with trypsin (1:50; enzyme:protein) for 6 hours at 37° C. Tandem mass tag (TMT) reagents (Thermo Fisher Scientific) were dissolved in anhydrous acetonitrile (ACN) according to manufacturer's instructions. […] The 10, 11, or 16-plex labeling reactions were performed for 1.5 hours at room temperature and the reaction quenched by the addition of hydroxylamine to a final concentration of 0.3% for 15 minutes at room temperature. The sample channels were combined at a 1:1 ratio, desalted using C18 solid phase extraction cartridges (Waters®) and analyzed by LC-MS for channel ratio comparison. Samples were then combined using the adjusted volumes determined in the channel ratio analysis and dried down in a speed vacuum. The combined sample was then resuspended in 1% formic acid, and acidified (pH 2-3) before being subjected to desalting with C18 SPE (Sep-Pak®, Waters®). Samples were then offline fractionated into 96 fractions by high pH reverse-phase HPLC (Agilent® LC1260) through an aeris peptide xb-c18 column (Phenomenex®) with mobile phase A containing 5% acetonitrile and 10 mM NH4HCO3 in LC-MS grade H2O, and mobile phase B containing 90% acetonitrile and 10 mM NH4HCO3 in LC-MS grade H2O (both pH 8.0). The 96 resulting fractions were then pooled in a non-continuous manner into 24 fractions and desalted using C18 solid phase extraction plates (SOLA®, Thermo Fisher Scientific) followed by subsequent mass spectrometry analysis.
(§3) Data were collected using an Orbitrap Fusion™ Lumos™ mass spectrometer (Thermo Fisher Scientific, San Jose, CA, USA) coupled with a Proxeon EASY-nLC™ 1200 LC pump (Thermo Fisher Scientific) or an Orbitrap Eclipse™ Tribrid™ mass spectrometer (Thermo Fisher Scientific, San Jose, CA, USA) coupled with an UltiMate™ 3000 RSLCnano System. Peptides were separated on an EasySpray™ ES803a/ES803a.rev2 75 μm inner diameter microcapillary column (ThermoFisher Scientific).
(§4) Data dependent MS2 spectra were acquired in the ion trap with a normalized collision energy (NCE) set at 35%, AGC target set to 1.8×10^4 and a maximum injection time of 120 ms. MS3 scans were acquired in the Orbitrap with HCD collision energy set to 55%. AGC target set to 2×10^5, maximum injection time of 150 ms, resolution at 50,000 and with a maximum synchronous precursor selection (SPS) precursors set to 10.
(§5) Proteome Discoverer™ 2.1, 2.2 or 2.4 (Thermo Fisher Scientific) was used for .RAW file processing and controlling peptide and protein level false discovery rates, assembling proteins from peptides, and protein quantification from peptides.

[2] = assay type: cell-based, H. sapiens; conditions: MOLT-4, 1 μM, 5 h, 5 μM CB-5083
MOLT-4 cells = experiment: RNA sequencing of kinase transcript levels; assay type: cell-based, H. sapiens; conditions: MOLT-4, 1 μM
Procedure: With long treatment times (>8 h), it is difficult to distinguish direct degradation of targets from down-regulation caused by downstream or secondary effects.
MOLT-4 cells were seeded into 24 T25 flasks with 10 mL of culture at 10^6 cells/mL prior to compound treatment. […] Cells were harvested using CellStripper™ Dissociation reagent (Corning®), washed twice with PBS, and followed by snap freezing in liquid nitrogen. Total RNA was isolated from cell pellets using the RNeasy® Mini Kit (Qiagen®) following the manufacturer's directions. For quality control, RNA concentration and rRNA ratio (28S/18S) were measured using an Agilent 2100 Bioanalyzer. Samples were submitted to BGI Group for RNA-seq library preparation and Next Generation Sequencing using the BGISEQ-500 platform producing 50 base-pair single-end reads. Sequencing reads were aligned to the human genome (BSgenome.Hsapiens.UCSC.hg19 Bioconductor package, using splicedAlignment=FALSE) and quantified at the level of genes (TxDb.Hsapiens.UCSC.hg19.knownGene Bioconductor package) using the QuasR package with default parameters (Gaidatzis et al., Bioinformatics 31(7):1130-1132 (2015)). Expressed genes were identified using the edgeR Bioconductor package (Robinson et al., Bioinformatics 26(1):139-140 (2010)).

[3] = biological target: extended human kinome (kinase-like proteins) (Homo sapiens, UniProt Q9NYY8); experiment: Whole cell quantitative proteomics: extended kinome hits; conditions: Accession Q9NYY8; experiment wp160; 1 hr
extended human kinome (kinase-like proteins) (Homo sapiens, UniProt Q9NYY8), sequence (Q9NYY8 whole entry): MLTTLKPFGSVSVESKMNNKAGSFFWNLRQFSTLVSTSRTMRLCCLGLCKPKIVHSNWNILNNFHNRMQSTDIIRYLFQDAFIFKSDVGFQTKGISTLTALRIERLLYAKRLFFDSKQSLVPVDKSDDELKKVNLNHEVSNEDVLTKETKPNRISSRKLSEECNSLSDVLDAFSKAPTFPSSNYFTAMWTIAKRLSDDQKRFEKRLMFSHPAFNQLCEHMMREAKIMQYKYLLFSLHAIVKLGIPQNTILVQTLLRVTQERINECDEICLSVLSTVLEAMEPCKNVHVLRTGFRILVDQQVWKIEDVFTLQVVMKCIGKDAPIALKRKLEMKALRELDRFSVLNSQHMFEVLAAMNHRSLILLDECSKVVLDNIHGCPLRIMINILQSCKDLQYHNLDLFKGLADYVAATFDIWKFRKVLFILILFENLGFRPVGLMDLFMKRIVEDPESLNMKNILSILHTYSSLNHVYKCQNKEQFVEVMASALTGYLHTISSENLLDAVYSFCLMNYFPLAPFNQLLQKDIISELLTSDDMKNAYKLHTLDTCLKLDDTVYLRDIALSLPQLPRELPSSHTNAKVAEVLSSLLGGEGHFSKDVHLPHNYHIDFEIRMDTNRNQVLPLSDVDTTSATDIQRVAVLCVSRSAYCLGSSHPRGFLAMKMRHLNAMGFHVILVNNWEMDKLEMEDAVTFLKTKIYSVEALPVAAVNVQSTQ
Procedure: as §1, §2, §3, §4, §5

Cc1ccc(NC(=O)c2cccc(C(F)(F)F)c2)cc1N1Cc2cnc(Nc3ccc(N4CCN(Cc5cn(CCCCCOc6cccc7c6C(=O)N(C6CCC(=O)NC6=O)C7=O)nn5)CC4)nc3)nc2N(C)C1=O (centres unmarked) [DB0646, N-(3-(7-((6-(4-((1-(5-((2-(2,6-Dioxopiperidin-3-yl)-1,3-dioxoisoindolin-4-yl)oxy)pentyl)-1H-1,2,3-triazol-4-yl)methyl)piperazin-1-v)pyridin-3-yl)amino)-1-methyl-2-oxo-1,4-dihydropyrimido[4,5-d]pyrimidin-3(2H)-yl)-4-methylphenyl)-3-(trifluoromethyl)benzamide]
logFC PFKFB3 [1]: −0.377
CSK degradation rescue on p97 inhibition [2]: very little degradation rescue

CC(C)S(=O)(=O)c1ccccc1Nc1nc(Nc2ccc(N3CCN(CCOCCNC(=O)CNc4cccc5c4C(=O)N(C4CCC(=O)NC4=O)C5=O)CC3)cc2)ncc1Cl (centres unmarked) [SK-3-91]
transcript levels (MOLT-4 cells; 8- and 12-h time points): complete transcriptional collapse
transcript levels (MOLT-4 cells; up until the 4-h time point): largely unchanged

CC(C)S(=O)(=O)c1ccccc1Nc1nc(Nc2ccc(N3CCN(CCOCCNC(=O)CNc4cccc5c4C(=O)N(C4CCC(=O)NC4=O)C5=O)CC3)cc2)ncc1Cl (centres unmarked) [SK.3.91]
logFC FASTKD2 [3]: −1

From US20240269139A1, “COMPOUNDS FOR TARGETED PROTEIN DEGRADATION OF KINASES” (DANA-FARBER CANCER INSTITUTE, INC., priority 2020, published 2024)
